# Patent publication US7351874B2, “Mouse model for fatty acid amide-related neurobehaviors” (The Scripps Research Institute, priority 2001, dated 2008)
# Entries after “also recorded” stand apart in the source; their conditions may differ.
# Columns and labels:
# FAAH−/− and FAAH+/+ mice [1] = test: Locomotor activity (hypomotility), grid crossings 15 to 20 min post-injection; format: in vivo, mouse
# Description: (§1) All drugs were administered intraperitoneal (ip) in a mixture of 1 part ethanol: 1 part EMULPHOR alcohol (GAF Corp.; New York N.Y.): 18 parts saline (10 μl/g body weight), except naloxone was administered ip in saline.
# (§2) Locomotor activity was assessed by placing each mouse in a clear plexiglass cage (18×10×8.5 inches; l.w.h) that was marked in 7 cm square grids on the floor of the cage. The number of grids that were traversed by the hind paws was counted from 15 to 20 min post-injection. Nociception was assessed using the tail immersion assay, wherein each mouse was hand-held with approximately 1 cm of the tip of the tail immersed into a water bath maintained at 56.0° C. and the latency for the animal to withdraw its tail was scored. The cutoff was 15 sec, and the data were expressed as the percent maximum possible effect (% MPE), where % MPE=100×{(post-injection latency−pre-injection latency)/(15−pre-injection latency)}. Baseline thermal nociception was also analyzed using the hot plate test, wherein the latency to jump or lick/shake a hind paw was scored.
# FAAH−/− and FAAH+/+ mice [2] = test: Tail immersion assay (antinociception); format: in vivo, mouse
# Description: as §1, §2
# FAAH−/− and FAAH+/+ mice [3] = test: Catalepsy bar test; format: in vivo, mouse
# Description: as §1
# (§3) Catalepsy was evaluated using the bar test, in which the front paws of each subject were placed on a rod (0.75 cm diameter) that was elevated 4.5 cm above the surface. Mice that remained motionless with their paws on the bar for 10 sec (with the exception of respiratory movements) were scored as cataleptic. Rectal temperature was determined by inserting a thermocouple probe 1.2 cm into the rectum; the temperature was obtained using a telethermometer. The pre-injection rectal temperatures for FAAH^+/+ (35.6±0.2° C., n=28) and FAAH^−/− mice (35.5±0.1° C., n=30) mice were equivalent. Catalepsy and rectal temperature were assessed at 60 min post-injection unless otherwise indicated.
# FAAH−/− and FAAH+/+ mice [4] = test: Rectal temperature (hypothermia); format: in vivo, mouse
# Description: as §1, §3
# FAAH−/− mice = test: Overt cage behavior after anandamide; format: in vivo, mouse
# Excerpt: If startled by sound or touch, the knockout mice reacted with brief fits of spastic movement, then quickly reentered a flattened, immobile state. Anandamide-treated FAAH^−/− mice remained immobile for 2 to 4 hr, depending on dose, after which they gradually reinitiated normal cage activities, including movement, rearing, and grooming.
# FAAH−/− and FAAH+/+ mice [5] = test: Neurobehavioral assays taken together (hypomotility, analgesia, catalepsy, hypothermia); format: in vivo, mouse
# Description: as §1, §2
# Catalepsy was evaluated using the bar test, in which the front paws of each subject were placed on a rod (0.75 cm diameter) that was elevated 4.5 cm above the surface. Mice that remained motionless with their paws on the bar for 10 sec (with the exception of respiratory movements) were scored as cataleptic. Rectal temperature was determined by inserting a thermocouple probe 1.2 cm into the rectum; the temperature was obtained using a telethermometer. […] Catalepsy and rectal temperature were assessed at 60 min post-injection unless otherwise indicated.
# [6] = test system: FAAH(−/−), FAAH-TG(+) and FAAH(−/−), FAAH-TG(−) mice; test: Pharmacological effects of anandamide in mice with FAAH expression restricted to the nervous system; format: in vivo, mouse; details: 50 mg/kg i.p.
# Description: Animals were tested at 20 minutes (A) and 60 minute (B and C) following treatment with anandamide. HT−=FAAH(+/−), FAAH-TG(−); KO+=FAAH(−/−), FAAH-TG(+); KO−=FAAH(−/−), FAAH-TG(−).
# Exogenously applied and endogenously produced fatty acid amides induce a variety of behavioral effects in mammals, which may reflect either central or peripheral sites of action. In wild type mammals, FAAH is not only expressed in the central and peripheral nervous system, but also in a variety of non-nervous system peripheral tissues, including liver, kidney, and testis. […] To address this issue, the mouse FAAH cDNA was placed under the control of the neural specific enolase (NSE) promoter (Forss-Petter et al. (1990) Neuron 5, 187-197) and this construct was used to generate transgenic mice (mixed background of C57Bl/6 and Balb/c) by pronuclear injection methods following standard literature procedures (Gordon, J. W. (1993) Methods Enzymol. 225, 747-771). These animals were screened by Southern blotting for genomic incorporation of the FAAH gene and multiple FAAH-positive transgenic [FAAH-TG(+)] lines were identified. One of these FAAH-TG(+) lines was then crossed to mice heterozygotic for FAAH deletion [FAAH(+/−) mice]. To create representative mouse genotypes for biochemical and behavioral analysis, the following breeding pairs were set up: FAAH(+/−),FAAH-TG(+)×FAAH(−/−),FAAH-TG(−). […]
# [7] = cited from earlier work
# [8] = biological target: T1, fatty acid amide hydrolase (FAAH) (Mus musculus, UniProt O08914); test: FAAH activity assay, conversion of 14C-labeled substrates by thin layer chromatography; format: biochemical; details: pH 7.2
# T1 construct: Brain and liver were isolated from homozygous wild type (FAAH^+/+), heterozygous (FAAH^+/−) and homozygous knockout (FAAH^−/−) mice; from tissue; host or cells: mouse brain and liver extracts (129SvJ-C57BL/6 intercross offspring)
# T1 sequence (O08914 1-579): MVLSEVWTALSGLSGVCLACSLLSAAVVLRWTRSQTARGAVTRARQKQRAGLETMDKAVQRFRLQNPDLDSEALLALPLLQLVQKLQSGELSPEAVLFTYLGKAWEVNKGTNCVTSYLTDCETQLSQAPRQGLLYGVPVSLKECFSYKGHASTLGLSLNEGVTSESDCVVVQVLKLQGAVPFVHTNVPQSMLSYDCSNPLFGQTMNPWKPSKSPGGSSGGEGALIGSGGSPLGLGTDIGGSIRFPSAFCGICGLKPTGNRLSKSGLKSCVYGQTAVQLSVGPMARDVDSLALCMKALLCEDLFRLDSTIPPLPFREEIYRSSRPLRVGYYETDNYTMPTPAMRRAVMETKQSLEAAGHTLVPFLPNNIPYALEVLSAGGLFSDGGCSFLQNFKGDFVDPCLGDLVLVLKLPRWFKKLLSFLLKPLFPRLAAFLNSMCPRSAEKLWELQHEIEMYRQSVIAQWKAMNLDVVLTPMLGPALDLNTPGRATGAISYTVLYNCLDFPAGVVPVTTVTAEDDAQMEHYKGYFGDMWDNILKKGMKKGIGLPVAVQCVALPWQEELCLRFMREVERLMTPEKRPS
# Description: The mice also were examined for FAAH enzymatic activity. FAAH activity assays for oleamide and anandamide were measured by following the conversion of ^14C-labeled substrates using a thin layer chromatography assay essentially as described by Patricelli et al. (Biochemistry 38:9804-9812, 1999), except that enzyme assays were conducted at pH 7.2. […] Brain extracts from FAAH^−/− mice hydrolyzed anandamide and oleamide 50 to 100 times more slowly than brain extracts from the homozygous wild type mice.
# [9] = test system: FAAH−/−, FAAH+/− and FAAH+/+ mice; test: Hot plate test, response latency before and after treatment; format: in vivo, mouse
# Description: as §2
# To test whether enhanced levels of endogenous anandamide were responsible for the analgesia observed in FAAH^−/− mice, the pain responses of these animals and FAAH^+/+ mice were tested prior to and after treatment with vehicle or with SR141716A.
# [10] = FAAH−/− mice, 50 mg/kg ip, 60 min post-injection
# [11] = FAAH−/− mice, 10 mg/kg, 10 min prior to anandamide 50 mg/kg
structure (smiles),measurement,setting,value
"CCCCC/C=C\C/C=C\C/C=C\C/C=C\CCCC(=O)NCCO [anandamide, N-arachidonoyl-ethanolamine]",reduction in spontaneous activity,"FAAH−/− and FAAH+/+ mice [1]; FAAH−/− mice, 50 mg/kg ip",84±8%
same,ED50,"FAAH−/− and FAAH+/+ mice [1]; Mus musculus, ip, read-out: ED50, hypomotility (locomotor activity)",< 6.25 mg/kg
same,"analgesia in the tail immersion test, maximum possible effect (MPE)","FAAH−/− and FAAH+/+ mice [2]; FAAH−/− mice, 50 mg/kg ip",89±11%
same,ED50,"FAAH−/− and FAAH+/+ mice [2]; Mus musculus, ip, read-out: ED50, antinociception (tail-immersion)",13 mg/kg
same,time by which catalepsy gradually dissipated,"FAAH−/− and FAAH+/+ mice [3]; FAAH−/− mice, 50 mg/kg",≤ 4 h
same,time post-treatment of most extreme catalepsy,"FAAH−/− and FAAH+/+ mice [3]; FAAH−/− mice, 50 mg/kg",1 h
same,"cataleptic behavior in the bar test, share of the test group",FAAH−/− and FAAH+/+ mice [3]; [10],88%
same,ED50,"FAAH−/− and FAAH+/+ mice [3]; Mus musculus, CL-11, ip, read-out: ED50, catalepsy",20 mg/kg
same,time at which rectal temperature began to return to wild type values,"FAAH−/− and FAAH+/+ mice [4]; FAAH−/− mice, 50 mg/kg",≤ 4 h
same,reduction in rectal temperature,FAAH−/− and FAAH+/+ mice [4]; [10],7.9±0.3 °C
same,ED50,"FAAH−/− and FAAH+/+ mice [4]; Mus musculus, ip, read-out: ED50, hypothermia (rectal temperature)",11 mg/kg
same,time at which the behavioral impact was readily detected,FAAH−/− mice,within five min of treatment
same,time the mice remained immobile,FAAH−/− mice; depending on dose,2 to 4 h
same,behavioral effects in FAAH+/+ mice,"FAAH−/− and FAAH+/+ mice [5]; FAAH+/+ mice, 6.25 to 50 mg/kg ip",failed to produce any significant effects
same,state of treated FAAH−/− mice 24 hr after treatment,"FAAH−/− and FAAH+/+ mice [5]; FAAH−/− mice, 24 hr after treatment",indistinguishable from FAAH^+/+ mice
same,behavioral effects in mice expressing FAAH only in the nervous system,"[6]; FAAH-TG(+) (KO+) mice, 50 mg/kg",sufficient to block the pharmacological effects; also recorded: dramatically reduced
same,behavioral effects in mice lacking FAAH,[6]; FAAH-TG(−) (KO−) mice,displayed significant behavioral effects
same,half-life in vivo,[7],on the order of minutes
CCCCCCCC/C=C\CCCCCCCC(N)=O [oleamide],"hydrolysis by FAAH−/− brain extracts, times more slowly than homozygous wild type brain extracts",[8],50 to 100 times
Cc1c(C(=O)NN2CCCCC2)nn(-c2ccc(Cl)cc2Cl)c1-c1ccc(Cl)cc1 [SR141716A],effect of pretreatment on anandamide-induced hypomotility,FAAH−/− and FAAH+/+ mice [1]; [11],completely blocked
same,effect of pretreatment on anandamide-induced antinociception,FAAH−/− and FAAH+/+ mice [2]; [11],completely blocked
same,effect of pretreatment on anandamide-induced catalepsy,FAAH−/− and FAAH+/+ mice [3]; [11],completely blocked
same,effect of pretreatment on anandamide-induced hypothermia,FAAH−/− and FAAH+/+ mice [4]; [11],completely blocked
same,change of hot plate response latency after treatment,"[9]; FAAH+/+ (b22 also FAAH+/−) mice, listed as SR141617A",No significant change from baseline; also recorded: modest increases in their hot plate response latencies that failed to reach significance
same,change of hot plate pain response latency after treatment,[9]; FAAH−/− mice,dramatic reduction
same,effect of pretreatment on all behavioral effects of anandamide,"FAAH−/− and FAAH+/+ mice [5]; FAAH−/− mice, 10 mg/kg ip, 10 min prior to anandamide 50 mg/kg",completely blocked
C=CCN1CC[C@]23c4c5ccc(O)c4O[C@H]2C(=O)CC[C@@]3(O)[C@H]1C5 [naloxone],effect of pretreatment on activity due to anandamide,"FAAH−/− and FAAH+/+ mice [5]; FAAH−/− mice, 2 mg/kg ip in saline",failed to reduce any activity
"CCCCCc1cc(O)c2c(c1)OC(C)(C)[C@@H]1CCC(C)=C[C@@H]21 [THC, (−)-Δ^9-tetrahydrocannabinol]","dose response profiles in FAAH−/− versus FAAH+/+ mice, all behavioral assays tested","FAAH−/− and FAAH+/+ mice [5]; FAAH−/− and FAAH+/+ mice (Table 2, not given)",nearly identical
